Laboratory results from patent publication US6770673B1, “Therapeutic uses of arglabin in combination with other chemotherapy agents” (priority 1997, dated 2004).

Columns and labels:
[1] = tested on: Pliss lymphosarcoma; test: Inhibition of tumor growth in implanted tumors; type: in vivo, rats
[2] = tested on: Worker's carcinosarcoma; test: Inhibition of tumor growth in implanted tumors; type: in vivo, mice and rats
[3] = tested on: Geren's carcinosarcoma; test: Inhibition of tumor growth in implanted tumors; type: in vivo, mice and rats
[4] = tested on: Sarcoma-45; test: Inhibition of tumor growth in implanted tumors; type: in vivo, rats
[5] = tested on: M-1 Sarcoma; test: Inhibition of tumor growth in implanted tumors; type: in vivo, mice and rats
[6] = tested on: Alveolar Cancer of the liver; test: Inhibition of tumor growth in implanted tumors; type: in vivo, mice and rats
[7] = tested on: Sarcoma-45 resistant to 5-fluorouracil; test: Inhibition of growth of resistant tumour strains; type: in vivo, rats
[8] = tested on: Pliss Lymphosarcoma resistant to prospidine; test: Inhibition of growth of resistant tumour strains; duration of life and metastasis; type: in vivo, rats
[9] = tested on: Leucemia P-388; test: Implanted leukemia, inhibition / survival; type: in vivo, mice and rats
[10] = tested on: PC-1; test: Inhibition of tumor growth in implanted tumors; type: in vivo, mice and rats; conditions: dose 30 mg/kg
[11] = tested on: L-1210; test: Implanted leukemia, survival; type: in vivo, mice and rats; conditions: dose 30 mg/kg
[12] = tested on: Sarcoma-45 resistant to sarcolysin; test: Inhibition of growth of resistant tumour strains; type: in vivo, rats; conditions: dose 30 mg/kg
[13] = tested on: Pliss Lymphosarcoma resistant to rubidomycin; test: Inhibition of growth of resistant tumour strains; type: in vivo, rats; conditions: dose 30 mg/kg
[14] = tested on: immune system; test: Indices of patients' immunity, rozette forming and phagocytosis methods (Table X); type: in vivo, human
Method: The indices of immune system were determined using rozette forming and phagocytosis methods. […] Eleven indices of cellular and humoral immunity were measured from each patient in order to evaluate immune status. The following indices were determined on 0.05 ml of peripheral blood: absolute and relative amount of T- and B-lymphocytes, amount of non-differentiated “zero” cells, adhesion and phagocyte activity of neutrophils, hemogram, level of serum immunoglobulins. Indices were determined before treatment, on days 2, 5 and 14 of treatment, and after treatment.
Mean values of immunological indices were evaluated with regression analysis. Functional conditions of the immune system were estimated using integral indices such as a mean intensity (correlation) expressed in relative units.

[15] = tested on: Sarcoma-37; test: Inhibition of tumor growth in implanted tumors; type: in vivo, mice and rats; conditions: dose 2 mg/kg
[16] = tested on: Pliss Lymphosarcoma resistant to leucoeffdine; test: Inhibition of growth of resistant tumour strains; tumor disappearance; type: in vivo, rats; conditions: leukofedin resistant Pliss' lymphosarcoma, collateral sensitivity

Compound: CC1=CCC23OC2(C)CCC2C(C)C(=O)OC2C13 (stereo not shown) [11,13-dihydroarglabin (16), 11,13 dihydroarglabin]
- Inhibition of Tumour Growth, % - Pliss lymphosarcoma ([1]; dose 30 mg/kg): 68.0%
- Inhibition of Tumour Growth, % - Worker's carcinosarcoma ([2]; dose 30 mg/kg): 46.4%
- Inhibition of Tumour Growth, % - Geren's carcinosarcoma ([3]; dose 30 mg/kg): 84.4%
- Inhibition of Tumour Growth, % - Sarcoma-45 ([4]; dose 30 mg/kg): 64.1%
- Inhibition of Tumour Growth, % - M-1 Sarcoma ([5]; dose 30 mg/kg): 65.5%
- Inhibition of Tumour Growth, % - Alveolar Cancer of the liver ([6]; dose 30 mg/kg): 68.7%

Compound: C=C1C(=O)OC2C1CCC(C)(O)C1C3OC3C(C)(O)C21 (stereo not drawn) [Anobin (19), 2α,3α-epoxy-4α,10α-dioxy-5,7α(H), 60β(H)-guai-11(13)-en-6,12-olide]
- Inhibition of Tumour Growth, % - Pliss lymphosarcoma ([1]; dose 20-30 mg/kg): 60.0%
- Inhibition of Tumour Growth, % - Geren's carcinosarcoma ([3]; dose 20-30 mg/kg): 85%
- Inhibition of Tumour Strains Growth, % - Resistant Forms - Sarcoma-45 to 5-fluorouracil ([7]; dose 20-30 mg/kg): 13.2%
- Inhibition of Tumour Strains Growth, % - Resistant Forms - Pliss Lymphosarcoma to prospidine ([8]; dose 20-30 mg/kg): 95%

Compound: C=C1C(=O)O[C@@H]2[C@H]3C(C)=CC[C@@]34O[C@@]4(C)CC[C@@H]12 [Arglabin (1), 1(R), 10(S)-epoxy-5(S), 6(S), 7(S)-guaia-3(4), 11(13)-diene-6,12-olide]
- Inhibition of Tumour Growth, % - Pliss lymphosarcoma ([1]; dose 30 mg/kg): 57.6%
- Inhibition of Tumour Growth, % - Worker's carcinosarcoma ([2]; dose 30 mg/kg): 41.1%
- Inhibition of Tumour Growth, % - Geren's carcinosarcoma ([3]; dose 30 mg/kg): 48.0%
- Inhibition of Tumour Growth, % - Sarcoma-45 ([4]; dose 30 mg/kg): 23.0%
- Inhibition of Tumour Growth, % - M-1 Sarcoma ([5]; dose 30 mg/kg): 55.6%
- Inhibition of Tumour Growth, % - Alveolar Cancer of the liver ([6]; dose 30 mg/kg): 32.1%
- Leucemia P-388 PALT - increase in survival ([9]; dose 30 mg/kg): +43.0%
- Inhibition of Tumour Growth, % - PC-1 [10]: 32.1%
- L-1210 - increase in survival [11]: +34.1%
- Inhibition of Tumour Strains Growth, % - Resistant Forms - Sarcoma-45 to sarcolysin [12]: 59.7%
- Inhibition of Tumour Strains Growth, % - Resistant Forms - Pliss Lymphosarcoma to rubidomycin [13]: 44.1%
- Inhibition of Tumour Strains Growth, % - Resistant Forms - Pliss Lymphosarcoma to prospidine ([8]; dose 30 mg/kg): 31.0%
- Adhesion, N/ph ([14]; human, in vivo): 42.40 ± 1.72
- Non differentiated lymphocytes, % ([14]; human, in vivo): 26.00 ± 2.21%
- T-lymphocytes, % ([14]; human, in vivo): 52.00 ± 1.42%
- Eosinophil ([14]; patients, hemogram, after treatment (before treatment 2.72 ± 0.71)): 3.35 ± 1.30
- Neutrophils, % ([14]; patients, hemogram, after treatment (before treatment 4.72 ± 0.91)): 5.45 ± 0.79%
- Monocytes ([14]; patients, hemogram, after treatment (before treatment 5.28 ± 2.48)): 4.45 ± 0.44
- Lymphocytes ([14]; patients, hemogram, after treatment (before treatment 25.52 ± 2.02)): 23.15 ± 1.7
- Segmentation nucleus ([14]; patients, hemogram, after treatment (before treatment 61.68 ± 45.0)): 63.05 ± 1.79
- B-lymphocytes, absolute ([14]; patients, peripheral blood, after treatment (before treatment 0.29 ± 0.05)): 0.45 ± 0.07
- T-lymphocytes, absolute ([14]; patients, peripheral blood, after treatment (before treatment 0.72 ± 0.08)): 1.14 ± 0.17
- D-phag, abs ([14]; patients, peripheral blood, after treatment (before treatment 1.69 ± 0.26)): 2.32 ± 0.19
- Leukocytes, 10^9/l ([14]; patients, peripheral blood, after treatment (before treatment 5.97 ± 0.60)): 9.14 ± 0.61 10^9/l
- T suppressor, % ([14]; patients, peripheral blood, after treatment (before treatment 10.48 ± 1.60)): 10.50 ± 0.95%
- B-lymphocytes, % ([14]; patients, peripheral blood, after treatment (before treatment 19.12 ± 1.02)): 18.50 ± 10.0%
- T helper cells, % ([14]; patients, peripheral blood, after treatment (before treatment 39.12 ± 1.25)): 45.30 ± 1.26%
- D-phag., % ([14]; patients, peripheral blood, after treatment (before treatment 41.36 ± 0.95)): 48.1 ± 0.93%
- Immunoglobulins M ([14]; patients, serum, after treatment (before treatment 1.36 ± 0.03)): 1.53 ± 0.03 g/L
- Immunoglobulins A ([14]; patients, serum, after treatment (before treatment 1.48 ± 0.02)): 1.97 ± 0.08 g/L
- Immunoglobulins G ([14]; patients, serum, after treatment (before treatment 14.33 ± 0.43)): 17.91 ± 0.41 g/L

Compound: COc1cc2c(c(OC)c1OC)-c1ccc(OC)c(=O)cc1[C@@H](NC(C)=O)CC2 [Colchicine, colchicine, reference compound]
- Inhibition of Tumour Growth, % - Pliss lymphosarcoma ([1]; dose 2 mg/kg): 54.4%
- Inhibition of Tumour Growth, % - Worker's carcinosarcoma ([2]; dose 2 mg/kg): 30.1%
- Inhibition of Tumour Growth, % - Geren's carcinosarcoma ([3]; dose 2 mg/kg): 32.4%
- Inhibition of Tumour Growth, % - Sarcoma-45 ([4]; dose 2 mg/kg): 23.4%
- Inhibition of Tumour Growth, % - Sarcoma-37 [15]: 36.7%
- Inhibition of Tumour Growth, % - M-1 Sarcoma ([5]; dose 2 mg/kg): 14.9%
- Inhibition of Tumour Growth, % - Alveolar Cancer of the liver ([6]; dose 2 mg/kg): 29.1%
- Inhibition of Tumour Growth, % - Leucemia P-388 PALT ([9]; dose 2 mg/kg): 31.2%

Compound: C=C1C(=O)OC2C1CCC1(C)OC13CC(Br)C(C)(Br)C23 (stereo not shown) [Dibromoarglabin (5), 3,4 Dibromoarglabin]
- Inhibition of Tumour Growth, % - Pliss lymphosarcoma ([1]; dose 50 mg/kg): 51.0%
- Inhibition of Tumour Growth, % - Worker's carcinosarcoma ([2]; dose 50 mg/kg): 17.1%
- Inhibition of Tumour Growth, % - Geren's carcinosarcoma ([3]; dose 50 mg/kg): 90.0%
- Inhibition of Tumour Growth, % - Sarcoma-45 ([4]; dose 50 mg/kg): 74.2%
- Inhibition of Tumour Growth, % - Alveolar Cancer of the liver ([6]; dose 50 mg/kg): 69.0%
- Inhibition of Tumour Growth, % - Leucemia P-388 PALT ([9]; dose 50 mg/kg): 46.9%
- Inhibition of Tumour Strains Growth, % - Resistant Forms - Sarcoma-45 to 5-fluorouracil ([7]; dose 50 mg/kg): 46.3%

Compound: C=C1C(=O)OC2C1CCC(C)(Cl)C1(O)CC(Cl)C(C)(O)C21 (stereo not shown) [Dichlordihydroxyarglabin (3)]
- Inhibition of Tumour Growth, % - Pliss lymphosarcoma ([1]; dose 50 mg/kg): 29.0%
- Inhibition of Tumour Growth, % - Worker's carcinosarcoma ([2]; dose 50 mg/kg): 63.2%
- Inhibition of Tumour Growth, % - Geren's carcinosarcoma ([3]; dose 50 mg/kg): 71.4%
- Inhibition of Tumour Growth, % - Sarcoma-45 ([4]; dose 50 mg/kg): 70.9%
- Inhibition of Tumour Growth, % - Alveolar Cancer of the liver ([6]; dose 50 mg/kg): 51.0%
- Inhibition of Tumour Growth, % - Leucemia P-388 PALT ([9]; dose 50 mg/kg): 92.1%
- Inhibition of Tumour Strains Growth, % - Resistant Forms - Sarcoma-45 to 5-fluorouracil ([7]; dose 50 mg/kg): 70.6%

Compound: CC1=CCC23OC2(C)CCC2C(CN(C)C)C(=O)OC2C13 (stereo not shown) [Dimethylaminoarglabin (14b), dimethylaminoarglabin]
- Inhibition of Tumour Growth, % - Pliss lymphosarcoma ([1]; dose 30 mg/kg): 78.2%
- Inhibition of Tumour Growth, % - Pliss lymphosarcoma ([1]; dose 50 mg/kg): 56.0%
- Inhibition of Tumour Growth, % - Worker's carcinosarcoma ([2]; dose 30 mg/kg): 30.0%
- Inhibition of Tumour Growth, % - Worker's carcinosarcoma ([2]; dose 50 mg/kg): 30.0%
- Inhibition of Tumour Growth, % - Geren's carcinosarcoma ([3]; dose 50 mg/kg): 85.1%
- Inhibition of Tumour Growth, % - Sarcoma-45 ([4]; dose 30 mg/kg): 85.1%
- Inhibition of Tumour Growth, % - Sarcoma-45 ([4]; dose 50 mg/kg): 79.0%
- Inhibition of Tumour Growth, % - M-1 Sarcoma ([5]; dose 30 mg/kg): 79.9%
- Inhibition of Tumour Growth, % - Alveolar Cancer of the liver ([6]; dose 50 mg/kg): 42.0%
- Inhibition of Tumour Growth, % - Leucemia P-388 PALT ([9]; dose 50 mg/kg): 80.1%
- Inhibition of Tumour Growth, % - PC-1 [10]: 62.1%
- Inhibition of Tumour Strains Growth, % - Resistant Forms - Sarcoma-45 to 5-fluorouracil ([7]; dose 50 mg/kg): 52.1%
- Inhibition of Tumour Strains Growth, % - Resistant Forms - Pliss Lymphosarcoma to prospidine ([8]; dose 30 mg/kg): 52.1%

Compound: CN(C)CC1C(=O)OC2C1CCC1(C)OC13CC1OC1(C)C23 (stereo not shown) [Dimethylaminoepoxyarglabin (15b), dimethylaminoepoxyarglabin]
- Inhibition of Tumour Growth, % - Pliss lymphosarcoma ([1]; dose 50 mg/kg): 64.6%
- Inhibition of Tumour Growth, % - Worker's carcinosarcoma ([2]; dose 50 mg/kg): 43.1%
- Inhibition of Tumour Growth, % - Geren's carcinosarcoma ([3]; dose 50 mg/kg): 31.4%
- Inhibition of Tumour Growth, % - Sarcoma-45 ([4]; dose 50 mg/kg): 58.1%
- Inhibition of Tumour Growth, % - Alveolar Cancer of the liver ([6]; dose 50 mg/kg): 38.0%
- Inhibition of Tumour Growth, % - Leucemia P-388 PALT ([9]; dose 50 mg/kg): 51.0%
- Inhibition of Tumour Strains Growth, % - Resistant Forms - Sarcoma-45 to 5-fluorouracil ([7]; dose 50 mg/kg): 11.2%

Compound: CN(C)CC1C(=O)OC2C1CCC1(C)OC13CC1OC1(C)C23.Cl (stereo not shown) [dimethylaminoepoxyarglabin hydrochloride]
- Inhibition of Tumour Growth, % - Pliss lymphosarcoma ([1]; dose 50 mg/kg): 47.0%
- Inhibition of Tumour Growth, % - Worker's carcinosarcoma ([2]; dose 50 mg/kg): 51.4%
- Inhibition of Tumour Growth, % - Geren's carcinosarcoma ([3]; dose 50 mg/kg): 15.6%
- Inhibition of Tumour Growth, % - Sarcoma-45 ([4]; dose 50 mg/kg): 32.4%
- Inhibition of Tumour Growth, % - Alveolar Cancer of the liver ([6]; dose 50 mg/kg): 29.1%
- Inhibition of Tumour Growth, % - Leucemia P-388 PALT ([9]; dose 50 mg/kg): 31.2%
- Inhibition of Tumour Strains Growth, % - Resistant Forms - Sarcoma-45 to 5-fluorouracil ([7]; dose 50 mg/kg): 13.2%

Compound: NC(Cc1ccc(N(CCCl)CCCl)cc1)C(=O)O (stereo not shown) [sarcolysin, reference compound]
- rats with complete disappearance of the tumor [16]: 60%
